This test concerns MYB mRNA. Nature of the test: Splicing RT-qPCR assay, MYB canonical (CJ) and alternative (AJ) junction mRNA. The settings on record: Homo sapiens, A673 or K562 cells, 24 hours; for IC50: decrease in canonical junction mRNA; for AC50: increase in alternative junction mRNA. The format is cell-based. An outline of the steps:
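Splice switching was scored by qPCR detection of the new alternative-exon junction (AJ) alongside the canonical junction (CJ). Cell lines A673 or K562 received compound 24 h, top dose 10 uM final.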

Each structure is given as a SMILES string. Structures can show the parent of a compound that is named as a salt. Where only a bound is given, the exact number is not on record here.

Regarding `CN[C@@H]1CCN(c2ccc(C(=O)Nc3cc(F)c4nc(C)cn4c3)c3nccnc23)C1` (single isomer, unassigned) [Compound 193, N-{8-fluoro-2-methylimidazo[1,2-a]pyridin-6-yl}-8-[3-(methylamino)pyrrolidin-1-yl]quinoxaline-5-carboxamide], the IC50 lay in the range of 0.1 to 1 µM and the half-maximal activity concentration (AC50) is 0.1 to 1 µM.

Take `CN[C@H]1CCN(c2ccc(C(=O)Nc3cc(F)c4nc(C)cn4c3)c3nccnc23)C1` (single isomer, unassigned) [Compound 194, N-{8-fluoro-2-methylimidazo[1,2-a]pyridin-6-yl}-8-[3-(methylamino)pyrrolidin-1-yl]quinoxaline-5-carboxamide]: the IC50 was under 0.1 µM and the AC50 is 0.1 to 1 µM.

Consider `Cc1cn2nc(NC(=O)c3ccc(N4CCNCC4)c4ccnnc34)cc(C)c2n1` [Compound 100], for which the half-inhibitory concentration (IC50) is 0.1 to 1 µM and the AC50 was in the range of 0.1 to 1 µM.

On to `Cc1cn2cc(NC(=O)c3ccc(N4CCNC5(CC5)C4)c4ccnnc34)cc(F)c2n1` [Compound 105], for which the IC50 is 0.1 to 1 µM and the AC50 lay in the range of 0.1 to 1 µM.

Regarding `Cc1cn2cc(NC(=O)c3ccc(N4C[C@H]5CC[C@@H](C4)N5)c4ccnnc34)cc(F)c2n1` [Compound 108], the IC50 is 0.1 to 1 µM and the concentration at half-maximal activity (AC50) lay within 0.1 to 1 µM.

Molecule `Cc1cn2nc(NC(=O)c3ccc(N4CCNCC4)c4ccnnc34)cc2c(C)n1` [Compound 123] displayed an IC50 of 1 to 10 µM and an AC50 of 1 to 10 µM.

For the molecule `Cc1cn2cc(NC(=O)c3ccc(N4CCNCC4)c4ccnnc34)cc(C)c2n1` [Compound 125], the half-maximal inhibitory concentration (IC50) was in the range of 0.1 to 1 µM and the AC50 was in the range of 0.1 to 1 µM.

Turning to `O=C(Nc1cn[nH]c1)c1ccc(N2CCNCC2)c2ccnnc12` [Compound 126], the IC50 was over 10 µM and the AC50 is over 10 µM.

In turn, `Cc1cn2cc(NC(=O)c3ccc(N4CCN(C)CC4)c4ccnnc34)cc(F)c2n1` [Compound 127] had an IC50 of 0.1 to 1 µM and an AC50 of 1 to 10 µM.

Molecule `Cc1cn2cc(NC(=O)c3ccc(N4CCNC(C)C4)c4ccnnc34)cc(F)c2n1` (centres unmarked) [Compound 128] gave an IC50 of under 0.1 µM and an AC50 of under 0.1 µM.

With `CCC1CN(c2ccc(C(=O)Nc3cc(F)c4nc(C)cn4c3)c3nnccc23)CCN1` (centres unmarked) [Compound 130], the IC50 is under 0.1 µM and the AC50 was 0.1 to 1 µM.

Molecule `Cc1cn2cc(NC(=O)c3ccc(N4CC5(CNC5)C4)c4ccnnc34)cc(F)c2n1` [Compound 131] returned an IC50 of 0.1 to 1 µM and a concentration at half-maximal activity (AC50) of 0.1 to 1 µM.

`Cc1cn2cc(NC(=O)c3ccc(N4CCC(N5CCCC5)C4)c4ccnnc34)cc(F)c2n1` (centres unmarked) [Compound 133]: the IC50 was in the range of 1 to 10 µM and the AC50 lay within 0.1 to 1 µM.

Turning to `Cc1cn2cc(NC(=O)c3ccc(N4CCC(N(C)C)C4)c4ccnnc34)cc(F)c2n1` (centres unmarked) [Compound 134], the IC50 was 0.1 to 1 µM and the AC50 lay in the range of 0.1 to 1 µM.

On to `Cc1cn2cc(NC(=O)c3ccc(N4CCC(N(C)C)CC4)c4ccnnc34)cc(F)c2n1` [Compound 137], for which the IC50 was under 0.1 µM and the AC50 was under 0.1 µM.

In the case of `Cc1cn2cc(NC(=O)c3ccc(N4CCC(NC(C)(C)C)CC4)c4ccnnc34)cc(F)c2n1` [Compound 138], the IC50 is 0.1 to 1 µM and the AC50 was in the range of 0.1 to 1 µM.

As to `Cc1cn2cc(NC(=O)c3ccc(C4CCN(C)CC4)c4ccnnc34)cc(F)c2n1` [Compound 140], the IC50 fell in the range of 0.1 to 1 µM and the AC50 is 0.1 to 1 µM.

Molecule `CCN1CCC(c2ccc(C(=O)Nc3cc(F)c4nc(C)cn4c3)c3nnccc23)CC1` [Compound 141] had an IC50 of 0.1 to 1 µM and an AC50 of 0.1 to 1 µM.

`Cc1cn2cc(NC(=O)c3ccc(N4CCN[C@H](C)C4)c4ccnnc34)cc(F)c2n1` [Compound 146] had an IC50 of under 0.1 µM and an AC50 of under 0.1 µM.

`Cc1cn2cc(NC(=O)c3ccc(N4CCN(C)[C@H](C)C4)c4ccnnc34)cc(F)c2n1` [Compound 149] came in with an IC50 of under 0.1 µM and an AC50 of 0.1 to 1 µM.

Molecule `Cc1cn2cc(NC(=O)c3ccc(N4CCN(C)[C@@H](C)C4)c4ccnnc34)cc(F)c2n1` [Compound 150] showed an IC50 of 0.1 to 1 µM and an AC50 of 0.1 to 1 µM.

On to `CC[C@@H]1CN(c2ccc(C(=O)Nc3cc(F)c4nc(C)cn4c3)c3nnccc23)CCN1` [Compound 151], for which the IC50 is under 0.1 µM and the AC50 was 0.1 to 1 µM.

`CC[C@H]1CN(c2ccc(C(=O)Nc3cc(F)c4nc(C)cn4c3)c3nnccc23)CCN1` [Compound 152] registered an IC50 of 0.1 to 1 µM and a concentration at half-maximal activity (AC50) of 0.1 to 1 µM.

`Cc1cn2cc(NC(=O)c3ccc(N4CCN5CCC[C@@H]5C4)c4ccnnc34)cc(F)c2n1` [Compound 153] showed an IC50 of under 0.1 µM and an AC50 of under 0.1 µM.

In the case of `Cc1cn2cc(NC(=O)c3ccc(N4CCN5CCC[C@H]5C4)c4ccnnc34)cc(F)c2n1` [Compound 154], the IC50 fell in the range of 0.1 to 1 µM and the AC50 lay within 0.1 to 1 µM.

For the molecule `Cc1cn2cc(NC(=O)c3ccc(N4C[C@H]5C[C@@H]4C5N(C)C)c4ccnnc34)cc(F)c2n1` (some centres unmarked) [Compound 155], the IC50 lay in the range of 1 to 10 µM and the concentration at half-maximal activity (AC50) is 1 to 10 µM.

For the molecule `Cc1cn2cc(NC(=O)c3ccc(N(C)[C@@H]4C[C@H]5CC[C@@H](C4)N5)c4ccnnc34)cc(F)c2n1` [Compound 156], the IC50 is 1 to 10 µM and the half-maximal activity concentration (AC50) fell in the range of 1 to 10 µM.

Consider `Cc1cc2c(N3CCNCC3)ccc(C(=O)Nc3cc(F)c4nc(C)cn4c3)c2nn1` [Compound 159], for which the IC50 was under 0.1 µM and the AC50 is under 0.1 µM.

In turn, `Cc1cn2cc(NC(=O)c3ccc(N4C[C@@H](C)N[C@@H](C)C4)c4ccnnc34)cc(F)c2n1` [Compound 161, 5-(3,5-dimethylpiperazin-1-yl)-N-{8-fluoro-2-methylimidazo[1,2-a]pyridin-6-yl}cinnoline-8-carboxamide 2,2,2-trifluoroacetate] returned an IC50 of under 0.1 µM and an AC50 of under 0.1 µM.

The molecule `Cc1ccc2c(N3CCNCC3)ccc(C(=O)Nc3cc(F)c4nc(C)cn4c3)c2n1` [Compound 162, N-{8-fluoro-2-methylimidazo[1,2-a]pyridin-6-yl}-2-methyl-5-(piperazin-1-yl)quinoline-8-carboxam-ide, trifluoroacetic acid] yielded an IC50 of under 0.1 µM and a concentration at half-maximal activity (AC50) of under 0.1 µM.

For `CC(=O)c1cc(NC(=O)c2ccc(N3CCNCC3)c3ccnnc23)cn2cc(C)nc12` [Compound 163, N-{8-acetyl-2-methylimidazo[1,2-a]pyridin-6-yl}-5-(piperazin-1-yl)cinnoline-8-carboxamide], the IC50 was 1 to 10 µM and the AC50 lay within 1 to 10 µM.

Take `Cc1cn2cc(NC(=O)c3ccc(N4CCNCC4)c4ccnnc34)nc(C)c2n1` [Compound 164, N-{2,8-dimethylimidazo[1,2-a]pyrazin-6-yl}-5-(piperazin-1-yl)cinnoline-8-carboxamide 2,2,2-trifluoroacetate]: the 50% inhibitory concentration (IC50) fell in the range of 0.1 to 1 µM and the AC50 lay in the range of 0.1 to 1 µM.

As for `Cc1cn2cc(NC(=O)c3ccc(N4CCNCC4)c4cccnc34)cc(F)c2n1` [Compound 165, N-{8-fluoro-2-methylimidazo[1,2-a]pyridin-6-yl}-5-(piperazin-1-yl)quinoline-8-carboxamide], the IC50 was under 0.1 µM and the AC50 is under 0.1 µM.

`Cc1cn2cc(NC(=O)c3ccc(N4CCNCC4)c4nnccc34)cc(F)c2n1` [Compound 166, N-(8-fluoro-2-methylimidazo[1,2-a]pyridin-6-yl)-8-(piperazin-1-yl)cinnoline-5-carboxamide 2,2,2-trifluoroacetate] gave an IC50 of over 10 µM and an AC50 of over 10 µM.

Turning to `Cc1cn2cc(NC(=O)c3ccc(N4CCNCC4)c4ccnnc34)cc(C#N)c2n1` [Compound 167, N-{8-cyano-2-methylimidazo[1,2-a]pyridin-6-yl}-5-(piperazin-1-yl)cinnoline-8-carboxamide trifluoroacetic acid salt], the IC50 lay in the range of 0.1 to 1 µM and the half-maximal activity concentration (AC50) was 0.1 to 1 µM.

`CCc1cc(NC(=O)c2ccc(N3CCNCC3)c3ccnnc23)nn2cc(C)nc12` [Compound 168, N-{8-ethyl-2-methylimidazo[1,2-b]pyridazin-6-yl}-5-(piperazin-1-yl)cinnoline-8-carboxamide trifluoroacetic acid salt] came in with an IC50 of 1 to 10 µM and an AC50 of 1 to 10 µM.

The molecule `COc1ccc2c(N3CCNCC3)ccc(C(=O)Nc3cc(F)c4nc(C)cn4c3)c2n1` [Compound 169, N-{8-fluoro-2-methylimidazo[1,2-a]pyridin-6-yl}-2-methoxy-5-(piperazin-1-yl)quinoline-8-carboxamide] registered an IC50 of under 0.1 µM and a concentration at half-maximal activity (AC50) of under 0.1 µM.

Take `Cc1cn2cc(NC(=O)c3ccc(N4C[C@@H](C)N[C@@H](C)C4)c4ccnnc34)nc(C)c2n1` [Compound 172, N-{2,8-dimethylimidazo[1,2-a]pyrazin-6-yl}-5-[(3R,5S)-3,5-dimethylpiperazin-1-yl]cinnoline-8-carboxamide]: the IC50 lay within 0.1 to 1 µM and the concentration at half-maximal activity (AC50) is under 0.1 µM.

`COCCOc1ccc2c(N3CCNCC3)ccc(C(=O)Nc3cc(F)c4nc(C)cn4c3)c2n1` [Compound 173, N-{8-fluoro-2-methylimidazo[1,2-a]pyridin-6-yl}-2-(2-methoxyethoxy)-5-(piperazin-1-yl)quinoline-8-carboxamide]: the IC50 was under 0.1 µM and the AC50 was under 0.1 µM.

`COc1cc(NC(=O)c2ccc(N3CCNCC3)c3ccnnc23)cn2cc(C)nc12` [Compound 176, N-{8-methoxy-2-methylimidazo[1,2-a]pyridin-6-yl}-5-(piperazin-1-yl)cinnoline-8-carboxamide trifluoroacetate]: the IC50 lay within 0.1 to 1 µM and the concentration at half-maximal activity (AC50) was 0.1 to 1 µM.

The values are drawn from patent US20240409536A1, “COMPOUNDS AND METHODS FOR MODULATING SPLICING” (REMIX THERAPEUTICS INC., priority 2021, published 2024).
